Assay results from ChEMBL document CHEMBL1201862, “PubChem BioAssay data set” (2004).
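Interpolation was linear, between the two tested concentrations surrounding the appropriate level; five concentrations were tested over 48 hours in 96-well plates. GI50 is the concentration that inhibits growth by half.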 Calls of active or inactive are those of the source. Cut-off read from the data, not from the text of the source: active = GI50 up to about 1.1 µM and inactive = higher.

Assays:
Test in all cases: NCI tumour cell line growth inhibition, 48 h
SW-620 = tested on: SW-620
MDA-MB-231 = tested on: MDA-MB-231
KM12 = tested on: KM12
CCRF-CEM = tested on: CCRF-CEM
SK-MEL-28 = tested on: SK-MEL-28
HCT-116 = tested on: HCT-116
EKVX = tested on: EKVX
Hs-578T = tested on: Hs-578T
ACHN = tested on: ACHN
M14 = tested on: M14
OVCAR-8 = tested on: OVCAR-8
MDA-MB-435 = tested on: MDA-MB-435
COLO 205 = tested on: COLO 205
SK-MEL-2 = tested on: SK-MEL-2
UO-31 = tested on: UO-31
HT-29 = tested on: HT-29
SNB-75 = tested on: SNB-75
SNB-19 = tested on: SNB-19
SR = tested on: SR
U-251 = tested on: U-251
NCI/ADR-RES = tested on: NCI/ADR-RES
HL-60 = tested on: HL-60
OVCAR-5 = tested on: OVCAR-5
UACC-62 = tested on: UACC-62
SN12C = tested on: SN12C
BT-549 = tested on: BT-549
IGROV-1 = tested on: IGROV-1
SF-539 = tested on: SF-539
RXF 393 = tested on: RXF 393
UACC-257 = tested on: UACC-257
DU-145 = tested on: DU-145
MCF7 = tested on: MCF7
K562 = tested on: K562
Malme-3M = tested on: Malme-3M
MDA-N = tested on: MDA-N
SK-MEL-5 = tested on: SK-MEL-5
T47D = tested on: T47D
OVCAR-3 = tested on: OVCAR-3
MOLT-4 = tested on: MOLT-4
SF-268 = tested on: SF-268
OVCAR-4 = tested on: OVCAR-4
TK-10 = tested on: TK-10
NCI-H522 = tested on: NCI-H522
A498 = tested on: A498
SF-295 = tested on: SF-295
SK-OV-3 = tested on: SK-OV-3
CAKI-1 = tested on: CAKI-1
NCI-H23 = tested on: NCI-H23
NCI-H226 = tested on: NCI-H226
HCC 2998 = tested on: HCC 2998
HOP-62 = tested on: HOP-62
786-0 = tested on: 786-0
A549 = tested on: A549
RPMI-8226 = tested on: RPMI-8226
LOX IMVI = tested on: LOX IMVI
NCI-H460 = tested on: NCI-H460
PC-3 = tested on: PC-3
HCT-15 = tested on: HCT-15
HOP-92 = tested on: HOP-92

## CC(N/N=C(\S)N1CCCC1)c1cccnn1 (stereo unspecified)
SW-620
  GI50: 0.579 µM (active)
MDA-MB-231
  GI50: 1.03 µM (active)
KM12
  GI50: 0.719 µM (active)
CCRF-CEM
  GI50: 0.274 µM (active)
SK-MEL-28
  GI50: 0.453 µM (active)
HCT-116
  GI50: 0.335 µM (active)
EKVX
  GI50: 0.294 µM (active)
Hs-578T
  GI50: 9.53 µM (inactive)
ACHN
  GI50: 0.391 µM (active)
M14
  GI50: 0.378 µM (active)
OVCAR-8
  GI50: 0.342 µM (active)
MDA-MB-435
  GI50: 1.13 µM (inactive)
COLO 205
  GI50: 0.376 µM (active)
SK-MEL-2
  GI50: 0.906 µM (active)
UO-31
  GI50: 0.741 µM (active)
HT-29
  GI50: 0.426 µM (active)
SNB-75
  GI50: 7.52 µM (inactive)
SNB-19
  GI50: 0.513 µM (active)
SR
  GI50: 0.378 µM (active)
U-251
  GI50: 0.358 µM (active)
NCI/ADR-RES
  GI50: 0.48 µM (active)
HL-60
  GI50: 0.361 µM (active)
OVCAR-5
  GI50: 0.318 µM (active)
UACC-62
  GI50: 0.414 µM (active)
SN12C
  GI50: 0.778 µM (active)
BT-549
  GI50: 0.433 µM (active)
IGROV-1
  GI50: 0.43 µM (active)
SF-539
  GI50: 0.215 µM (active)
RXF 393
  GI50: 0.315 µM (active)
UACC-257
  GI50: 0.267 µM (active)
DU-145
  GI50: 0.789 µM (active)
MCF7
  GI50: 0.308 µM (active)
K562
  GI50: 0.632 µM (active)
Malme-3M
  GI50: 0.849 µM (active)
MDA-N
  GI50: 1.84 µM (inactive)
SK-MEL-5
  GI50: 0.279 µM (active)
T47D
  GI50: 0.553 µM (active)
OVCAR-3
  GI50: 0.29 µM (active)
MOLT-4
  GI50: 0.351 µM (active)
SF-268
  GI50: 0.259 µM (active)
OVCAR-4
  GI50: 0.695 µM (active)
TK-10
  GI50: 0.54 µM (active)
NCI-H522
  GI50: 2.31 µM (inactive)
A498
  GI50: 4.91 µM (inactive)
SF-295
  GI50: 0.451 µM (active)
SK-OV-3
  GI50: 0.337 µM (active)
CAKI-1
  GI50: 0.713 µM (active)
NCI-H23
  GI50: 0.561 µM (active)
NCI-H226
  GI50: 1.13 µM (inactive)
HCC 2998
  GI50: 18.5 µM (inactive)
HOP-62
  GI50: 0.312 µM (active)
786-0
  GI50: 0.452 µM (active)
A549
  GI50: 0.342 µM (active)
RPMI-8226
  GI50: 0.434 µM (active)
LOX IMVI
  GI50: 0.444 µM (active)
NCI-H460
  GI50: 0.306 µM (active)
PC-3
  GI50: 0.375 µM (active)
HCT-15
  GI50: 0.443 µM

## CNn1c(-c2ccccc2)n[nH]c1=O
SW-620
  GI50: > 100 µM (inactive)
MDA-MB-231
  GI50: > 100 µM (inactive)
KM12
  GI50: > 100 µM (inactive)
CCRF-CEM
  GI50: > 100 µM (inactive)
SK-MEL-28
  GI50: > 100 µM (inactive)
HCT-116
  GI50: > 100 µM (inactive)
EKVX
  GI50: > 100 µM (inactive)
Hs-578T
  GI50: > 100 µM (inactive)
ACHN
  GI50: > 100 µM (inactive)
M14
  GI50: > 100 µM (inactive)
OVCAR-8
  GI50: > 100 µM (inactive)
MDA-MB-435
  GI50: > 100 µM (inactive)
COLO 205
  GI50: > 100 µM (inactive)
SK-MEL-2
  GI50: > 100 µM (inactive)
UO-31
  GI50: > 100 µM (inactive)
HT-29
  GI50: > 100 µM (inactive)
SNB-75
  GI50: > 100 µM (inactive)
SNB-19
  GI50: > 100 µM (inactive)
SR
  GI50: > 100 µM (inactive)
U-251
  GI50: > 100 µM (inactive)
NCI/ADR-RES
  GI50: > 100 µM (inactive)
HL-60
  GI50: > 100 µM (inactive)
OVCAR-5
  GI50: > 100 µM (inactive)
UACC-62
  GI50: > 100 µM (inactive)
SN12C
  GI50: > 100 µM (inactive)
BT-549
  GI50: > 100 µM (inactive)
IGROV-1
  GI50: > 100 µM (inactive)
SF-539
  GI50: > 100 µM (inactive)
UACC-257
  GI50: > 100 µM (inactive)
DU-145
  GI50: > 100 µM (inactive)
MCF7
  GI50: > 100 µM (inactive)
K562
  GI50: > 100 µM (inactive)
Malme-3M
  GI50: > 100 µM (inactive)
MDA-N
  GI50: > 100 µM (inactive)
SK-MEL-5
  GI50: > 100 µM (inactive)
HOP-92
  GI50: > 100 µM (inactive)
T47D
  GI50: > 100 µM (inactive)
OVCAR-3
  GI50: > 100 µM (inactive)
MOLT-4
  GI50: > 100 µM (inactive)
SF-268
  GI50: > 100 µM (inactive)
OVCAR-4
  GI50: > 100 µM (inactive)
TK-10
  GI50: > 100 µM (inactive)
NCI-H522
  GI50: > 100 µM (inactive)
A498
  GI50: > 100 µM (inactive)
SF-295
  GI50: > 100 µM (inactive)
SK-OV-3
  GI50: > 100 µM (inactive)
CAKI-1
  GI50: > 100 µM (inactive)
NCI-H23
  GI50: > 100 µM (inactive)
NCI-H226
  GI50: > 100 µM (inactive)
HCC 2998
  GI50: > 100 µM (inactive)
HOP-62
  GI50: > 100 µM (inactive)
786-0
  GI50: > 100 µM (inactive)
A549
  GI50: > 100 µM (inactive)
RPMI-8226
  GI50: > 100 µM (inactive)
LOX IMVI
  GI50: > 100 µM (inactive)
NCI-H460
  GI50: > 100 µM (inactive)
PC-3
  GI50: > 100 µM (inactive)
HCT-15
  GI50: > 100 µM

## COC(=O)/N=[N+](\[O-])C(c1ccc(Cl)cc1)c1ccc(Cl)cc1
SW-620
  GI50: 48.6 µM (inactive)
MDA-MB-231
  GI50: 1.75 µM (inactive)
KM12
  GI50: 32.2 µM (inactive)
CCRF-CEM
  GI50: 28.4 µM (inactive)
SK-MEL-28
  GI50: 50.4 µM (inactive)
HCT-116
  GI50: 23.8 µM (inactive)
EKVX
  GI50: 25.2 µM (inactive)
Hs-578T
  GI50: 36.4 µM (inactive)
M14
  GI50: 31.3 µM (inactive)
OVCAR-8
  GI50: 36.3 µM (inactive)
MDA-MB-435
  GI50: 38.1 µM (inactive)
COLO 205
  GI50: 23.9 µM (inactive)
SK-MEL-2
  GI50: 34.1 µM (inactive)
UO-31
  GI50: 15.5 µM (inactive)
HT-29
  GI50: 51.6 µM (inactive)
SNB-75
  GI50: 27.9 µM (inactive)
SNB-19
  GI50: 50.4 µM (inactive)
SR
  GI50: 42 µM (inactive)
U-251
  GI50: 39.2 µM (inactive)
NCI/ADR-RES
  GI50: 38.2 µM (inactive)
HL-60
  GI50: 20.7 µM (inactive)
OVCAR-5
  GI50: 80.9 µM (inactive)
UACC-62
  GI50: 36.4 µM (inactive)
SN12C
  GI50: 56.1 µM (inactive)
BT-549
  GI50: 53.8 µM (inactive)
IGROV-1
  GI50: 40.1 µM (inactive)
SF-539
  GI50: 65.3 µM (inactive)
RXF 393
  GI50: 27.2 µM (inactive)
UACC-257
  GI50: 34.6 µM (inactive)
DU-145
  GI50: 29.1 µM (inactive)
MCF7
  GI50: 33.9 µM (inactive)
K562
  GI50: 49.1 µM (inactive)
Malme-3M
  GI50: 51.9 µM (inactive)
MDA-N
  GI50: 47.5 µM (inactive)
SK-MEL-5
  GI50: 24.7 µM (inactive)
T47D
  GI50: 20.8 µM (inactive)
OVCAR-3
  GI50: 57.7 µM (inactive)
MOLT-4
  GI50: 39.7 µM (inactive)
SF-268
  GI50: 69.5 µM (inactive)
OVCAR-4
  GI50: 42.6 µM (inactive)
TK-10
  GI50: 36.1 µM (inactive)
NCI-H522
  GI50: 32.6 µM (inactive)
A498
  GI50: 31.8 µM (inactive)
SK-OV-3
  GI50: 83.6 µM (inactive)
CAKI-1
  GI50: 10.1 µM (inactive)
NCI-H23
  GI50: 32 µM (inactive)
NCI-H226
  GI50: 21.9 µM (inactive)
HCC 2998
  GI50: 32 µM (inactive)
786-0
  GI50: 27.1 µM (inactive)
A549
  GI50: 40.1 µM (inactive)
RPMI-8226
  GI50: 21.9 µM (inactive)
LOX IMVI
  GI50: 15.7 µM (inactive)
NCI-H460
  GI50: 38.9 µM (inactive)
PC-3
  GI50: 27.2 µM (inactive)
HCT-15
  GI50: 30.8 µM
